Where a name gives a salt, the structure may show the parent alone. Each block holds one molecule with its values, some of them ahead of it.
Target: T1, proton, potassium-adenosine triphosphatase (H+,K+-ATPase) (Sus scrofa, UniProt P19156)
T1 construct: a gastric mucous membrane microsomal fraction was prepared from the stomach of swine
Test: Proton potassium-adenosine triphosphatase (H+,K+-ATPase) inhibitory activity test
Format: biochemical
Details: swine gastric mucous membrane microsomal fraction, pH 6.5, 37° C., 10 mmol/L potassium chloride
Description: Proton Potassium-Adenosine Triphosphatase (H^+,K^+-ATPase) Inhibitory Activity Test
According to the method [Biochim. Biophys. Acta, 728, 31 (1983)] of Wallmark et al., a gastric mucous membrane microsomal fraction was prepared from the stomach of swine. First, the stomach was removed, washed with tap water, and immersed in 3 mol/L brine, and the surface of the mucous membrane was wiped with a paper towel. The gastric mucous membrane was detached, chopped, and homogenized in a 0.25 mol/L saccharose solution (pH 6.8) containing 1 mmol/L EDTA and 10 mmol/L tris-hydrochloric acid using polytron (Kinematica). The obtained homogenate was centrifuged at 20,000×g for 30 min and the supernatant was centrifuged at 100,000×g for 90 min. The precipitate was suspended in 0.25 mol/L saccharose solution, the suspension was superimposed on a 0.25 mol/L saccharose solution containing 7.5% Ficoll, and centrifuged at 100,000×g for 5 hr. The fraction containing the interface between the both layers was recovered, and centrifugally washed with 0.25 mol/L saccharose solution.
The obtained microsomal fraction was used as a proton, potassium-adenosine triphosphatase standard product.
To 40 μL of a 50 mmol/L HEPES-tris buffer (5 mmol/L magnesium chloride, 10 mmol/L potassium chloride, 10 μmol/L valinomycin, pH=6.5) containing 2.5 μg/mL (based on the protein concentration) of the enzyme standard product was added a test compound (5 μL) dissolved in a 10% aqueous dimethyl sulfoxide solution, and the mixture was incubated at 37° C. for 30 min. The enzyme reaction was started by adding 5 μL of a 2 mmol/L adenosine triphosphate tris salt solution (50 mmol/L HEPES-tris buffer (5 mmol/L magnesium chloride, pH 6.5)). The enzyme reaction was carried out at 37° C. for 20 min, and 15 μL of a malachite green solution (0.12% malachite green solution in sulfuric acid (2.5 mol/L), 7.5% ammonium molybdate and 11% Tween 20 were mixed at a ratio of 100:25:2) was added to quench the reaction. After allowing to stand at room temperature for 15 min, the resulting reaction product of inorganic phosphorus with malachite green was colorimetrically determined at a wavelength of 610 nm. In addition, the amount of the inorganic phosphoric acid in the reaction solution free of potassium chloride was measured in the same manner, which was subtracted from the inorganic phosphoric acid amount in the presence of potassium chloride to determine the proton, potassium-adenosine triphosphatase activity. The inhibitory rate (%) was determined from the activity value of the control and the activity values of various concentrations of the test compound, and the 50% inhibitory concentration (IC50) of the proton, potassium-adenosine triphosphatase was determined.

T1 sequence (P19156 2-1034): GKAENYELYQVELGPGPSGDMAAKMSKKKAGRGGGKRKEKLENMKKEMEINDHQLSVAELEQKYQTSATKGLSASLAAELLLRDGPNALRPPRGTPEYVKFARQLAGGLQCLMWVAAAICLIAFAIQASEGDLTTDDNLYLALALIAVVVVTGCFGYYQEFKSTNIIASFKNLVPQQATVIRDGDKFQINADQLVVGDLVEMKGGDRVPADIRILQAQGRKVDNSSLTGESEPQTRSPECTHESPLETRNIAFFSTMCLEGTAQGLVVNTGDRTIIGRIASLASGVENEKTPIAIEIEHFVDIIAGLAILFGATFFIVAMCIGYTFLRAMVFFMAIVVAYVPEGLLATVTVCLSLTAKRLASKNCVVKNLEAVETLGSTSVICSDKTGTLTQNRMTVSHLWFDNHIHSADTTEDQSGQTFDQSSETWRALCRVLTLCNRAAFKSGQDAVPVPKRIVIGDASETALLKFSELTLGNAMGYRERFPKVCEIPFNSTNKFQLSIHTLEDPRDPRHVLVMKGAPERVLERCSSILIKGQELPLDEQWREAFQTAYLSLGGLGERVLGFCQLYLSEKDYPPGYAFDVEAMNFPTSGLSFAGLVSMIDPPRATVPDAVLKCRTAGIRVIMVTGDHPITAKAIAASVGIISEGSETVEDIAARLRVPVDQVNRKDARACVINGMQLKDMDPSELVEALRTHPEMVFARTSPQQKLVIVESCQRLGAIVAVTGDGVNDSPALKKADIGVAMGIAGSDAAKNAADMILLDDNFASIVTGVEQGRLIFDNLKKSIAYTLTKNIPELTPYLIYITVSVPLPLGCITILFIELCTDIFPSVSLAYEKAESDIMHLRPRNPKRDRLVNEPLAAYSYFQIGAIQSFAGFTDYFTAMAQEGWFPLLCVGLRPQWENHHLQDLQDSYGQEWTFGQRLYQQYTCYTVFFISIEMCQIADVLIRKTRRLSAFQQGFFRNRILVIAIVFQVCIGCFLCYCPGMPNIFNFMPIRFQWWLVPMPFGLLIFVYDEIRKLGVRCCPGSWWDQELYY
T1 sequence (P18434 whole entry partner): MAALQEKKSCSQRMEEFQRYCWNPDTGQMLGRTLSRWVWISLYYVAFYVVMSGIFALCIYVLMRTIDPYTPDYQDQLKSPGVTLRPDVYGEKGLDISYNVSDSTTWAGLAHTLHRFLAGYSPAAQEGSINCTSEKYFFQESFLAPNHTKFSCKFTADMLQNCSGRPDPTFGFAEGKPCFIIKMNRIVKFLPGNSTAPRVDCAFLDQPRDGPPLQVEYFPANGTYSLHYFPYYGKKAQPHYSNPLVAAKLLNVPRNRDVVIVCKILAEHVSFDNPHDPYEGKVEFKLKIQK

Compound: CNCc1cc(-c2ccccc2F)c(S(=O)(=O)c2ccccc2)s1 [Example 19, 1-[4-(2-fluorophenyl)-5-(phenylsulfonyl)thiophen-2-yl]-N-methylmethanamine hydrochloride]
- IC50: 0.088 µM

Compound: CNCc1cc(-c2cccnc2F)c(S(=O)(=O)c2cccnc2)s1 [Example 48, 1-[4-(2-fluoropyridin-3-yl)-5-(pyridin-3-ylsulfonyl)thiophen-2-yl]-N-methylmethanamine]
- IC50: 0.24 µM

Compound: CNCc1nc(-c2ccccc2F)c(S(=O)(=O)c2cccnc2)s1 [Example 56, 1-[4-(2-fluorophenyl)-5-(pyridin-3-ylsulfonyl)-1,3-thiazol-2-yl]-N-methylmethanamine fumarate]
- IC50: 0.24 µM

Compound: CNCc1nc(-c2cccnc2F)c(S(=O)(=O)c2cccnc2)s1 [Example 60, 1-[4-(2-fluoropyridin-3-yl)-5-(pyridin-3-ylsulfonyl)-1,3-thiazol-2-yl]-N-methylmethanamine]
- IC50: 0.31 µM

Compound: CNCc1cc(S(=O)(=O)c2cccnc2)c(-c2cccnc2F)s1 [Example 65, 1-[5-(2-fluoropyridin-3-yl)-4-(pyridin-3-ylsulfonyl)thiophen-2-yl]-N-methylmethanamine]
- IC50: 0.25 µM

Compound: CNCc1cc(S(=O)(=O)c2ccccc2)n(-c2cccnc2F)n1 [Example 79, 1-[1-(2-fluoropyridin-3-yl)-5-(phenylsulfonyl)-1H-pyrazol-3-yl]-N-methylmethanamine]
- IC50: 0.19 µM

Compound: CNCc1cc(S(=O)(=O)c2cccnc2)n(-c2ccccc2F)n1 [Example 81, 1-[1-(2-fluorophenyl)-5-(pyridin-3-ylsulfonyl)-1H-pyrazol-3-yl]-N-methylmethanamine]
- IC50: 0.13 µM

Compound: CNCc1cc(S(=O)(=O)c2cccc(C#N)c2)n(-c2ccccc2Cl)n1 [Example 86, 3-({1-(2-chlorophenyl)-3-[(methylamino)methyl]-1H-pyrazol-5-yl}sulfonyl)benzonitrile hydrochloride]
- IC50: 0.084 µM

Compound: CNCc1cc(S(=O)(=O)c2cccnc2)n(-c2ccccc2Cl)n1 [Example 87, 1-[1-(2-chlorophenyl)-5-(pyridin-3-ylsulfonyl)-1H-pyrazol-3-yl]-N-methylmethanamine]
- IC50: 0.086 µM

Compound: CNCc1cc(S(=O)(=O)c2ccc(C)nc2)n(-c2ccccc2Cl)n1 [Example 89, 1-{1-(2-chlorophenyl)-5-[(6-methylpyridin-3-yl)sulfonyl]-1H-pyrazol-3-yl}-N-methylmethanamine]
- IC50: 0.11 µM

Compound: CNCc1cc(S(=O)(=O)c2cccnc2)n(-c2cccc(F)c2F)n1 [Example 98, 1-[1-(2,3-difluorophenyl)-5-(pyridin-3-ylsulfonyl)-1H-pyrazol-3-yl]-N-methylmethanamine]
- IC50: 0.22 µM

Compound: CNCc1cc(S(=O)(=O)c2cccnc2)n(-c2cccc(F)c2Cl)n1 [Example 113, 1-[1-(2-chloro-3-fluorophenyl)-5-(pyridin-3-ylsulfonyl)-1H-pyrazol-3-yl]-N-methylmethanamine fumarate]
- IC50: 0.18 µM

Stronger by IC50, values ahead:

- IC50: 0.032 µM
Compound: CNCc1cc(-c2cccnc2F)c(S(=O)(=O)c2ccccc2)s1 [Example 2, 1-[4-(2-fluoropyridin-3-yl)-5-(phenylsulfonyl)-2-thienyl]-N-methylmethanamine hydrochloride]

- IC50: 0.064 µM
Compound: CNCc1cc(-c2ccccc2F)c(S(=O)(=O)c2cccc(OC)c2)s1 [Example 4, 1-{4-(2-fluorophenyl)-5-[(3-methoxyphenyl)sulfonyl]-2-thienyl}-N-methylmethanamine fumarate]

- IC50: 0.046 µM
Compound: CNCc1nc(-c2ccccc2F)c(S(=O)(=O)c2cccc(OC)c2)s1 [Example 13, 1-{4-(2-fluorophenyl)-5-[(3-methoxyphenyl)sulfonyl]-1,3-thiazol-2-yl}-N-methylmethanamine hydrochloride]

- IC50: 0.064 µM
Compound: CNCc1cn(S(=O)(=O)c2cccs2)c(-c2ccccc2F)n1 [Example 18, 1-[2-(2-fluorophenyl)-1-(2-thienylsulfonyl)-1H-imidazol-4-yl]-N-methylmethanamine fumarate]

- IC50: 0.028 µM
Compound: CNCc1cn(S(=O)(=O)c2ccccc2)c(-c2ccccc2F)n1 [Example 67, 1-[2-(2-fluorophenyl)-1-(phenylsulfonyl)-1H-imidazol-4-yl]-N-methylmethanamine fumarate]

- IC50: 0.076 µM
Compound: CNCc1cc(S(=O)(=O)c2ccc(C)nc2)n(-c2cccc(F)c2F)n1 [Example 99, 1-{1-(2,3-difluorophenyl)-5-[(6-methylpyridin-3-yl)sulfonyl]-1H-pyrazol-3-yl}-N-methylmethanamine]

Reference: patent publication US20090156642A1, “5-Membered heterocyclic compound” (Takeda Pharmaceutical Company Limited, priority 2007, published 2009)
